Test: Napkin sprayed with pentane-1,5-diol solution, dried, used to remove urine; smell assessed
Design: species or system human being
Conditions: active solutions containing 10% (v/v) and 30% (v/v) sprayed onto disposable napkin, dried at room temperature; control water alone
From the text: Active solutions containing 10% (v/v) and 30% (v/v) pentane-1,5-diol were sprayed onto a disposable napkin until the complete area of the napkin was moistened. The napkin was left at room temperature until the napkin was dry. The napkin was then used to remove urine from a human being. […] As a control was water used alone. The same amount of water and the active solution were used.

With `OCCCCCO` [pentane-1,5-diol] the “smell of urine from the napkin” value was “no smell of urine”.
